Tests used:
Rattus norvegicus [1] = organism: Rattus norvegicus; test: DrugMatrix - Regimen: Daily Repeat; type: toxicity, organism-based, Sprague-Dawley; parameters: regimen Daily Repeat, gender Male, age 6-8 weeks; settings: in vivo, po, 200 mg/kg, […], route oral GAVAGE, dose level High, time 14 day, vehicle .5 % CMC
Rattus norvegicus [2] = organism: Rattus norvegicus; type: toxicity, organism-based, Sprague-Dawley; settings: in vivo, po, 200 mg/kg, 24 h, route oral GAVAGE, dose level High, time 1 day, vehicle .5 % CMC
Description: DrugMatrix - Regimen: Single

Compound: CC(C)=C1CC[C@@H](C)CC1=O [PULEGONE]
- ABSOLUTE BASOPHIL (Rattus norvegicus [1]; tissue Blood): 0 CELLS/uL
- ABSOLUTE EOSINOPHIL (Rattus norvegicus [1]; tissue Blood): 211.4 CELLS/uL
- ABSOLUTE LYMPHOCYTE (Rattus norvegicus [1]; tissue Blood): 21257.2 CELLS/uL
- ABSOLUTE MONOCYTE (Rattus norvegicus [1]; tissue Blood): 665.8 CELLS/uL
- ABSOLUTE SEGMENTED NEUTROPHIL (Rattus norvegicus [1]; tissue Blood): 3705.6 CELLS/uL
- BASOPHIL (Rattus norvegicus [1]; tissue Blood): 0%
- EOSINOPHIL (Rattus norvegicus [1]; tissue Blood): 0.8%
- ERYTHROCYTE COUNT (Rattus norvegicus [1]; tissue Blood): 6.34 x10E6/uL
- HEMATOCRIT (Rattus norvegicus [1]; tissue Blood): 37.3%
- HEMOGLOBIN (Rattus norvegicus [1]; tissue Blood): 13.88 G/DL
- LEUKOCYTE COUNT (Rattus norvegicus [1]; tissue Blood): 25.84 x10E3/uL
- LYMPHOCYTE (Rattus norvegicus [1]; tissue Blood): 82.2%
- MEAN CORPUSCULAR HEMOGLOBIN (Rattus norvegicus [1]; tissue Blood): 21.94 pg
- MEAN CORPUSCULAR HEMOGLOBIN CONCENTRATION (Rattus norvegicus [1]; tissue Blood): 37.2 G/DL
- MEAN CORPUSCULAR VOLUME (Rattus norvegicus [1]; tissue Blood): 58.94 fL
- MONOCYTE (Rattus norvegicus [1]; tissue Blood): 2.6%
- NEUTROPHIL (Rattus norvegicus [1]; tissue Blood): 14.4%
- NUCLEATED RED BLOOD CELLS (Rattus norvegicus [1]; tissue Blood): 0 /100WBC
- PLATELET COUNT (Rattus norvegicus [1]; tissue Blood): 1150.2 x10E3/uL
- ALANINE AMINOTRANSFERASE (Rattus norvegicus [1]; tissue Plasma): 78.8 u/L
- ALBUMIN (Rattus norvegicus [1]; tissue Plasma): 4.54 G/DL
- ALKALINE PHOSPHATASE (Rattus norvegicus [1]; tissue Plasma): 518 u/L
- ASPARTATE AMINOTRANSFERASE (Rattus norvegicus [1]; tissue Plasma): 93.8 u/L
- BLOOD UREA NITROGEN (Rattus norvegicus [1]; tissue Plasma): 14.2 mg/dL
- CARBON DIOXIDE (Rattus norvegicus [1]; tissue Plasma): 27.4 mmol/L
- CHLORIDE (Rattus norvegicus [1]; tissue Plasma): 102.2 MEQ/L
- CHOLESTEROL (Rattus norvegicus [1]; tissue Plasma): 65 mg/dL
- CREATININE (Rattus norvegicus [1]; tissue Plasma): 0.18 mg/dL
- GLUCOSE (Rattus norvegicus [1]; tissue Plasma): 128.2 mg/dL
- LACTATE DEHYDROGENASE (Rattus norvegicus [1]; tissue Plasma): 147 u/L
- LIPASE (Rattus norvegicus [1]; tissue Plasma): 11 u/L
- PHOSPHORUS (Rattus norvegicus [1]; tissue Plasma): 12.52 mg/dL
- POTASSIUM (Rattus norvegicus [1]; tissue Plasma): 7 MEQ/L
- SODIUM (Rattus norvegicus [1]; tissue Plasma): 148.6 MEQ/L
- TOTAL BILIRUBIN (Rattus norvegicus [1]; tissue Plasma): 0.32 mg/dL
- TOTAL PROTEIN (Rattus norvegicus [1]; tissue Plasma): 6.52 G/DL
- URIC ACID (Rattus norvegicus [1]; tissue Plasma): 2.08 mg/dL
- ABSOLUTE EOSINOPHIL (Rattus norvegicus [2]; tissue Blood): 46 CELLS/uL
- ABSOLUTE LYMPHOCYTE (Rattus norvegicus [2]; tissue Blood): 13023.67 CELLS/uL
- ABSOLUTE MONOCYTE (Rattus norvegicus [2]; tissue Blood): 245.33 CELLS/uL
- ABSOLUTE SEGMENTED NEUTROPHIL (Rattus norvegicus [2]; tissue Blood): 1251.67 CELLS/uL
- BASOPHIL (Rattus norvegicus [2]; tissue Blood): 0%
- EOSINOPHIL (Rattus norvegicus [2]; tissue Blood): 0.33%
- ERYTHROCYTE COUNT (Rattus norvegicus [2]; tissue Blood): 5.98 x10E6/uL
- HEMATOCRIT (Rattus norvegicus [2]; tissue Blood): 37.73%
- HEMOGLOBIN (Rattus norvegicus [2]; tissue Blood): 13.9 G/DL
- LEUKOCYTE COUNT (Rattus norvegicus [2]; tissue Blood): 14.57 x10E3/uL
- LYMPHOCYTE (Rattus norvegicus [2]; tissue Blood): 90%
- MEAN CORPUSCULAR HEMOGLOBIN (Rattus norvegicus [2]; tissue Blood): 23.43 pg
- MEAN CORPUSCULAR HEMOGLOBIN CONCENTRATION (Rattus norvegicus [2]; tissue Blood): 37 G/DL
- MEAN CORPUSCULAR VOLUME (Rattus norvegicus [2]; tissue Blood): 63.4 fL
- MONOCYTE (Rattus norvegicus [2]; tissue Blood): 1.67%
- NEUTROPHIL (Rattus norvegicus [2]; tissue Blood): 8%
- NUCLEATED RED BLOOD CELLS (Rattus norvegicus [2]; tissue Blood): 0 /100WBC
- PLATELET COUNT (Rattus norvegicus [2]; tissue Blood): 961.67 x10E3/uL
- ALANINE AMINOTRANSFERASE (Rattus norvegicus [2]; tissue Plasma): 52.67 u/L
- ALBUMIN (Rattus norvegicus [2]; tissue Plasma): 4.3 G/DL
- ALKALINE PHOSPHATASE (Rattus norvegicus [2]; tissue Plasma): 476.33 u/L
- ASPARTATE AMINOTRANSFERASE (Rattus norvegicus [2]; tissue Plasma): 110 u/L
- BLOOD UREA NITROGEN (Rattus norvegicus [2]; tissue Plasma): 12.33 mg/dL
- CARBON DIOXIDE (Rattus norvegicus [2]; tissue Plasma): 23.67 mmol/L
- CHLORIDE (Rattus norvegicus [2]; tissue Plasma): 103.5 MEQ/L
- CHOLESTEROL (Rattus norvegicus [2]; tissue Plasma): 77.67 mg/dL
- CREATININE (Rattus norvegicus [2]; tissue Plasma): 0.14 mg/dL
- GLUCOSE (Rattus norvegicus [2]; tissue Plasma): 133.33 mg/dL
- LACTATE DEHYDROGENASE (Rattus norvegicus [2]; tissue Plasma): 244 u/L
- LIPASE (Rattus norvegicus [2]; tissue Plasma): 10 u/L
- PHOSPHORUS (Rattus norvegicus [2]; tissue Plasma): 12.8 mg/dL
- POTASSIUM (Rattus norvegicus [2]; tissue Plasma): 6.49 MEQ/L
- SODIUM (Rattus norvegicus [2]; tissue Plasma): 142.65 MEQ/L
- TOTAL BILIRUBIN (Rattus norvegicus [2]; tissue Plasma): 0.23 mg/dL
- TOTAL PROTEIN (Rattus norvegicus [2]; tissue Plasma): 6 G/DL
- URIC ACID (Rattus norvegicus [2]; tissue Plasma): 1.8 mg/dL

From ChEMBL document CHEMBL3885881, “DrugMatrix”
